Data on 40 molecules can be found in patent publication US20250170112A1, “ADENOSINE LIGANDS FOR THE TREATMENT OF NEUROLOGICAL DISORDERS” (Lucy Therapeutics, Inc., priority 2022, published 2025).

One assay addresses T1, human A2B (Homo sapiens, UniProt P29275).
T1 construct: expressed in transfected cells; host or cells: HEK293
T1 sequence (P29275 1-332): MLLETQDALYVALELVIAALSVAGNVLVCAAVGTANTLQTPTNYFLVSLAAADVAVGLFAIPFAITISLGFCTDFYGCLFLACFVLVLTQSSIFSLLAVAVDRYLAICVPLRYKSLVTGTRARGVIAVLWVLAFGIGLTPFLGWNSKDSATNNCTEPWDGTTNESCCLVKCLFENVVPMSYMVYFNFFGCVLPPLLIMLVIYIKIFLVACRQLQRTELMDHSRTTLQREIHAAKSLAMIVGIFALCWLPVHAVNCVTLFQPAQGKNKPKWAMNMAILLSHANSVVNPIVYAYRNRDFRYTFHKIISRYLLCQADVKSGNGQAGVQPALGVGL
As to the kind of experiment: cAMP HTRF assay for Gs coupled receptor, agonist test. The format is cell-based. The settings on record: agonist activity; HEK293 cells expressing recombinant human A2B; read-out: A2BAR EC50. The procedure:
(§1) SPA ^35S-GTPγS experiments were conducted with Epics Therapeutics membrane preparations. cAMP HTRF assays were conducted with recombinant cell lines.
Dose response curves are performed in parallel with the reference compounds.
For agonist test (96 well): 12 μL of cells are mixed with 12 μL of the test compound at increasing concentrations and then incubated 30 min at room temperature. After addition of the lysis buffer containing cAMP-d2 and anti-cAMP cryptate detection reagents, plates are incubated 1 hour incubation at room temperature, and fluorescence ratios are measured according to the manufacturer specification, with the HTRF kit.
For orientation: TR-FRET usually uses a lanthanide donor and a delayed reading to cut background.

For assay [1], the target named is T2, human Adenosine A1 receptor (Homo sapiens, UniProt P30542).
T2 construct: host or cells: CHO-K1
T2 sequence (P30542 1-326): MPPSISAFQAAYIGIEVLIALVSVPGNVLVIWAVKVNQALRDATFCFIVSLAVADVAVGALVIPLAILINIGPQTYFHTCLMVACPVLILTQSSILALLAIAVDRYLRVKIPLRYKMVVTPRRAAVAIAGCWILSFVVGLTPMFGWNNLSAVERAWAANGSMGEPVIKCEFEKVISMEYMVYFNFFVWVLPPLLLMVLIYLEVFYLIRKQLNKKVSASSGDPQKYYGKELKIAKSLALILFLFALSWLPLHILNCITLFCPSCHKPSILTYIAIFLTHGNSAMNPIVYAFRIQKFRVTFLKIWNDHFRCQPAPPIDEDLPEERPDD
As to the kind of experiment: GTPγS scintillation proximity assay, agonist testing. Format: biochemical. The settings on record: agonist activity; membrane extracts of CHO-K1 cells expressing recombinant human A1; read-out: A1AR EC50. The procedure:
as §1
• Assay buffer: 20 mM HEPES pH 7.4; 100 mM NaCl, 10 μg/mL saponin, MgCl2 at optimized concentration for the specific receptor. • Membranes: membrane extracts prepared from CHO-K1 cells expressing recombinant human Adenosine A1 receptor, thawed on ice, diluted in assay buffer and kept on ice. • GDP: diluted in assay buffer at the optimized concentration for the specific receptor Beads: PVT-WGA (Perkin Elmer, RPNQ001), diluted in assay buffer at 50 mg/mL (0.5 mg/10 μL) • GTPγ^35S: (Perkin Elmer, NEG030X), diluted in assay buffer for a final 0.1 nM assay concentration
Protocol for agonist testing: membranes are mixed with GDP (volume:volume). In parallel, GTPγ[^35S] is mixed with the beads (volume:volume) just before starting the reaction. The following reagents are successively added in the wells of an Optiplate (Perkin Elmer): 50 μL of test or reference ligand, 25 μL of the membranes:GDP mix, and 25 μL of the GTPγ[^35S]:beads mix. The plates are covered with a top seal, mixed on an orbital shaker for 2 min, and then incubated for 1 hour at room temperature. Then the plates are centrifuged for 10 min at 2000 rpm, incubated at room temperature and counted for 30 sec/well with a PerkinElmer TopCount™ reader. • Conditions for the GTPγS scintillation proximity assay are shown in Table 14.

Bounds are passed on as bounds.

For the molecule `N#Cc1cnc(SCC2COC2)c(C#N)c1-c1ccc(OCCO)cc1` [Compound 61, 4-[4-(2-hydroxyethoxy)phenyl]-2-(oxetan-3-ylmethythio)pyridine-3,5-dicarbonitrile], the figures for the EC50 (on human A2B; in assay [1]) were greater than 10000 nM and 620 nM, respectively.

With `COCCOc1ccc(-c2c(C#N)c(N)nc(SCc3cccc(OC(F)(F)F)c3)c2C#N)cc1` [Compound 35], the EC50 at human A2B was greater than 10000 nM; in assay [1], 238 nM.

As to `N#Cc1c(SCc2cccnc2)nc(N2CC(O)C2)c(C#N)c1-c1ccc(OCCOC(F)F)cc1` [Compound 265], the EC50 was greater than 10000 nM at human A2B and 12.5 nM in assay [1].

With `N#CCCSc1nc(N)c(C#N)c(-c2ccc(OCCO)cc2)c1C#N` [Compound 121], the EC50 came out at 576 nM at human A2B and 327 nM in assay [1].

In the case of `COCCOc1ccc(-c2c(C#N)c(N)nc(SCC3CCO3)c2C#N)cc1` (centres unmarked) [Compound 112], the figures for the EC50 (at human A2B; in assay [1]) were greater than 10000 nM and 944 nM, respectively.

Turning to `CC(O)COc1ccc(-c2c(C#N)c(N)nc(SCc3cccnc3)c2C#N)cc1` (centres unmarked) [Compound 56, 2-Amino-4-[4-(2-hydroxy-propoxy)phenyl]-6-(3-pyridylmethylsulfanyl)pyridine-3,5-dicarbonitrile], the results for the EC50 (at human A2B; in assay [1]) were 0.08 nM and 8.6 nM, respectively.

On to `N#Cc1c(SCc2cccnc2)nc(N2CC(F)(F)C2)c(C#N)c1-c1ccc(OC2COC2)cc1` [Compound 272], for which the EC50 on human A2B came to 311 nM; in assay [1], 22 nM.

In the case of `N#Cc1c(SCc2cncnc2)nc(N2CCC2)c(C#N)c1-c1ccc(OCCO)cc1` [Compound 23], the EC50 came out at 420 nM at human A2B and 100 nM in assay [1].

`COCCOc1ccc(-c2c(C#N)c(N)nc(SCc3cncc4[nH]ccc34)c2C#N)cc1` [Compound 216]: the EC50 (at human A2B; in assay [1]) was greater than 10000 nM each time.

As for `CN(C)C(=O)CSc1nc(N)c(C#N)c(-c2ccc(OCCO)cc2)c1C#N` [Compound 138], the EC50 was found to be 2460 nM at human A2B and 891 nM in assay [1].

Take `N#Cc1c(N)nc(SCC2(F)COC2)c(C#N)c1-c1ccc(OCCO)cc1` [Compound 320]: the values for the EC50 (at human A2B; in assay [1]) were greater than 10000 nM and 230 nM, respectively.

As to `COCCOc1ccc(-c2c(C#N)c(N)nc(SCCC#N)c2C#N)cc1` [Compound 122], the EC50 on human A2B was greater than 10000 nM; in assay [1], 1020 nM.

Turning to `Cc1ccc(CSc2nc(N3CCCC3)c(C#N)c(-c3ccc(OCCO)cc3)c2C#N)cn1` [Compound 70], the EC50 at human A2B came out at 209 nM; in assay [1] it was 469 nM.

Take `COCCOc1ccc(-c2c(C#N)c(N)nc(SCCOC)c2C#N)cc1` [Compound 147]: the EC50 on human A2B was found to be 8560 nM; in assay [1], 55 nM.

On to `COCCOc1ccc(-c2c(C#N)c(SCc3cccnc3)nc(N3CC(O)C3)c2C#N)cc1` [Compound 278], for which the 50% effective concentration (EC50) was greater than 10000 nM at human A2B and 13.9 nM in assay [1].

For the molecule `N#Cc1c(N)nc(SCc2cccnc2)c(C#N)c1-c1ccc(OCCO)cc1` [Compound 183], the EC50 came to 0.1 nM at human A2B and 2 nM in assay [1].

For the molecule `N#Cc1c(N)nc(SCc2cccnc2)c(C#N)c1-c1ccc(OC(F)(F)CO)cc1` [Compound 309], the EC50 stood at 0.962 nM at human A2B and 6.48 nM in assay [1].

Consider `N#Cc1c(SCc2cccnc2)nc(N2CC(F)C2)c(C#N)c1-c1ccc(OC(F)(F)CO)cc1` [Compound 255], for which the EC50 on human A2B is 435 nM; in assay [1] it was greater than 10000 nM.

Consider `N#Cc1c(N)nc(SCC2COC2)c(C#N)c1-c1ccc(OC2CCCOC2)cc1` (centres unmarked) [Compound 308], for which the EC50 was 5570 nM at human A2B and greater than 10000 nM in assay [1].

As to `Cc1ncccc1CSc1nc(N2CCC2)c(C#N)c(-c2ccc(OCCO)cc2)c1C#N` [Compound 77], the EC50 is 2230 nM at human A2B and greater than 10000 nM in assay [1].

For `N#Cc1c(N)nc(SCC2CCCO2)c(C#N)c1-c1ccc(OCCO)cc1` (centres unmarked) [Compound 141], the concentration giving a half-maximal response (EC50) on human A2B was determined as 149 nM; in assay [1], 569 nM.

As for `N#Cc1c(N)nc(SCC2(F)COC2)c(C#N)c1-c1ccc(OC2COC2)cc1` [Compound 227], the EC50 on human A2B was greater than 10000 nM; in assay [1] it was 326 nM.

As for `Cc1ccc(CSc2nc(N3CCC3)c(C#N)c(-c3ccc(OCCO)cc3)c2C#N)c(C)n1` [Compound 74], the EC50 on human A2B was 8100 nM; in assay [1] it was greater than 10000 nM.

As for `COCCOc1ccc(-c2c(C#N)c(N)nc(Sc3cccnc3)c2C#N)cc1` [Compound 246], the EC50 (at human A2B; in assay [1]) was greater than 10000 nM in each case.

Turning to `COCCOc1ccc(-c2c(C#N)c(SCc3cccnn3)nc(N3CC(F)C3)c2C#N)cc1` [Compound 238], the EC50 (at human A2B; in assay [1]) was greater than 10000 nM each time.

Consider `N#Cc1c(N)nc(OCC2COC2)c(C#N)c1-c1ccc(OC2COC2)cc1` [Compound 312, 2-Amino-6-(oxetan-3-ylmethoxy)-4-(4-(oxetan-3-yloxy)phenyl)pyridine-3,5-dicarbonitrile], for which the EC50 was greater than 10000 nM on human A2B and 204 nM in assay [1].

As for `N#Cc1c(SCc2cccnc2)nc(N2CCC2)c(C#N)c1-c1ccc(OCCOC(F)F)cc1` [Compound 262], the EC50 (at human A2B; in assay [1]) was greater than 10000 nM throughout.

As to `N#Cc1c(SCc2cccnc2)nc(N2CC(F)C2)c(C#N)c1-c1ccc(OCCOC(F)F)cc1` [Compound 266], the EC50 was greater than 10000 nM on human A2B and 1070 nM in assay [1].

As to `N#Cc1c(SCc2cnccn2)nc(N2CCC2)c(C#N)c1-c1ccc(OCCO)cc1` [Compound 6], the EC50 at human A2B worked out at 213 nM; in assay [1] it was 586 nM.

For the molecule `N#Cc1c(SCc2cccnc2)nc(N2CCCC2)c(C#N)c1-c1ccc(OCCO)cc1` [Compound 114], the EC50 came to 18 nM on human A2B and 7.6 nM in assay [1].

Regarding `N#Cc1c(N)nc(OCC2CCCOC2)c(C#N)c1-c1ccc(OC2COC2)cc1` (centres unmarked) [Compound 300, 2-Amino-4-(4-(oxetan-3-yloxy)phenyl)-6-((tetrahydro-2H-pyran-3-yl)methoxy)pyridine-3,5-dicarbonitrile], the concentration for a half-maximal effect (EC50) at human A2B was greater than 10000 nM; in assay [1], 1150 nM.

`N#Cc1c(N)nc(SCC2CCOC2)c(C#N)c1-c1ccc(OC2CCCOC2)cc1` (centres unmarked) [Compound 326]: the EC50 (at human A2B; in assay [1]) was greater than 10000 nM in each case.

`N#Cc1c(N)nc(SCc2ccnnc2)c(C#N)c1-c1ccc(OCCO)cc1` [Compound 162]: the figures for the EC50 (at human A2B; in assay [1]) were 0.7 nM and 11 nM, respectively.

For the molecule `N#Cc1c(SCC2COC2)nc(N2CC(F)C2)c(C#N)c1-c1ccc(OCCO)cc1` [Compound 275], the EC50 is greater than 10000 nM at human A2B and 55.9 nM in assay [1].

For `N#Cc1c(N)nc(SCc2cccc3[nH]ccc23)c(C#N)c1-c1ccc(OC2CCOC2)cc1` (centres unmarked) [Compound 221], the 50% effective concentration (EC50) (on human A2B; in assay [1]) was greater than 10000 nM throughout.

As to `N#Cc1c(N)nc(SCc2cccc3[nH]ncc23)c(C#N)c1-c1ccc(OCCO)cc1` [Compound 15], the results for the EC50 (on human A2B; in assay [1]) were 142 nM and 1050 nM, respectively.

Take `N#Cc1c(N)nc(SCc2cccnn2)c(C#N)c1-c1ccc(OC2COC2)cc1` [Compound 234]: the EC50 amounted to 2.02 nM at human A2B and 1.22 nM in assay [1].

For `CN(C)c1nc(SCc2cccnc2)c(C#N)c(-c2ccc(OCCOC(F)F)cc2)c1C#N` [Compound 253], the EC50 (at human A2B; in assay [1]) was greater than 10000 nM throughout.

With `N#Cc1c(N)nc(SCc2cccnc2)c(C#N)c1-c1ccc(OC2COC2)cc1` [Compound 66], the EC50 at human A2B stood at 0.2 nM; in assay [1] it was 2.5 nM.

For the molecule `CC(O)COc1ccc(-c2c(C#N)c(SCc3cccnc3)nc(N3CCC3)c2C#N)cc1` (centres unmarked) [Compound 53, 2-(azetidin-1-yl)-4-[4-(2-hydroxypropoxy)phenyl]-6-(3-pyridylmethylsulfanyl)-pyridine-3,5-dicarbonitrile], the EC50 turned out to be 0.7 nM on human A2B and 7.2 nM in assay [1].

By EC50 is commonly meant the concentration at which the effect is half-maximal.
